Assay results: PMC11191095, “QSAR Reveals Decreased Lipophilicity of Polar Residues Determines the Selectivity of Antimicrobial Peptide Activity” (ACS Omega, 2024)
Where a SMILES comes first, the peptide text is derived from it.

Experiments:
[1] = tested on: C. parapsilosis NCPF 3209; experiment: microbe, parasite or virus in culture; assay type: cell-based
In short: (§1)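 Peptides 128→2 μg/mL, 2-fold series; inoculum ~5 × 10^5 CFU/mL from overnight culture (OD600 0.01, mixed 1:1). MHB non-cation-adjusted for bacteria, RPMI 1640 + 2% glucose for fungi. 37 °C, 20 h, OD600. MIC50/MIC90 at 50%/90% inhibition; n ≥ 3.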

[2] = tested on: C. albicans NCPF 3281; experiment: microbe, parasite or virus in culture; assay type: cell-based
In short: as §1

[3] = tested on: C. krusei NCPF 3876; experiment: microbe, parasite or virus in culture; assay type: cell-based
In short: as §1

[4] = tested on: C. glabrata NCPF 8018; experiment: microbe, parasite or virus in culture; assay type: cell-based
In short: as §1

[5] = tested on: C. tropicalis NCPF 8760; experiment: microbe, parasite or virus in culture; assay type: cell-based
In short: as §1

[6] = RP-HPLC ElutionTime as indicator of hydrophobicity; assay type: physicochemical; conditions: indicator of overall hydrophobicity; semipreparative RP-HPLC, Waters SymmetryPrep C8, water/ACN gradient with 0.1% TFA, 8 mL/min, 25 °C, 254 nm
Procedure: Crude peptides, made up to 10 mg/mL in 0.1% TFA (v/v) in ddH2O, were subjected to preparative RP-HPLC purification on an Agilent 1100 system, with elution in gradient. A gradient program at a flow rate of 8 mL/min and column temperature of 25 °C was used to achieve elution with solvent A (0.1% trifluoroacetic acid (TFA) in water (v/v)) and solvent B (0.1% TFA in 100% acetonitrile (ACN) (v/v)). The elution program was as follows: (1) At 0–73 min, 100% solvent A to 0% solvent B; (2) at 73–77 min, 40% solvent A to 60% solvent B; (3) at 77–93 min, 10% solvent A to 90% solvent B; (4) at 93–105 min, 100% solvent A to 0% solvent B. Data collected were the retention time of the major fraction for each peptide in minutes as RP-HPLC ElutionTime (ElutionTime). Absorbance was detected at 254 nm, and fractions were collected manually. The fractions collected were spun in a speed-vac to remove ACN and the contents lyophilized. After freeze-drying for 24 h the peptides were dissolved in 10% (v/v) acetic acid before being lyophilized for a second time and then stored at −20 °C.
Molecular descriptors used in the QSAR analysis included: charge, sequence length, overall lipophilicity (L), lipophilicity contributed by the polar or nonpolar residues (LP and LN), summation of the side chain surface areas of the total peptide, polar or nonpolar residues (SCSA, SCSAP, and SCSAN), the molecular weight of the entire peptide, polar or nonpolar residues (Mw, MwP, and MwN), count of small lipophilic residues (CSL) or aromatic residues (CAR), the total number of hydrogen bond donor and acceptor centers (HBtot, HBdon, and HBacc), the total number of rotatable bonds (#RotBonds) and various amphipathicity descriptors (LP/L, LP/LN, L/LN, Q/L, Q/LN, SCSAP/SCSAN, MwP/MwN, Q/CSL, and Q/CAR) (Suppl. Table S1). Experimentally determined characteristics included ElutionTime as an indicator of overall peptide hydrophobicity and the CD structure of each peptide determined in POPG/POPE lipids representing Gram-negative membranes, POPG lipids for Gram-positive membranes, and SDS micelles for fungal membranes. AMPs with an α-helical structure were labeled 4, β-sheets were labeled 3, β-turns and mixed conformations were labeled 2, and disordered structures were labeled 1.

[7] = tested on: eight Gram-negative, four Gram-positive bacteria, and six fungi; experiment: Antimicrobial screening against panel of 18 pathogens; assay type: cell-based; conditions: 128 to 2 μg/mL, 37 °C, 20 h
Procedure: Antimicrobial activity was evaluated against a panel of 18 pathogens consisting of eight Gram-negative strains (E. coli NCTC 12923, E. coli LEC001, Pseudomonas aeruginosa PAO1, P. aeruginosa NCTC 13437, Acinetobacter baumannii ATCC 17978, A. baumannii AYE, Klebsiella pneumoniae M6, K. pneumoniae NCTC 13368), four Gram-positive strains (Staphylococcus aureus ATCC 9144, S. aureus NCTC 13616, S. aureus USA300, S. aureus 1199B) and six fungi (Candida auris TDG 1912, C. albicans NCPF 8018, C. krusei NCPF 3876, C. tropicalis NCPF 8760, and C. parapsilosis NCPF 3209). Pathogens were grown in noncation adjusted Mueller Hinton broth (MHB, for bacteria) or Roswell Park Memorial Institute (RPMI 1640) + 2% glucose (for fungi) at 37 °C with 180 rpm shaking and maintained on solid media (tryptic soy agar for bacteria and Sabouraud dextrose agar for fungi). For an antibiogram, see Suppl.
The 46 peptides were serially diluted (128 to 2 μg/mL) in media down polypropylene 96-well plates. […] Plates were incubated at 37 °C for 20 h, and the optical density was determined spectrophotometrically at 600 nm. Minimum inhibition concentrations (MICs) were determined from a minimum of three biological repeats and are reported in μg/mL as well as μM. […]

[8] = tested on: C. auris TDG 1912; experiment: microbe, parasite or virus in culture; assay type: cell-based, Candida auris
In short: as §1

[9] = tested on: S. aureus (MRSA) 1199B; experiment: microbe, parasite or virus in culture; assay type: cell-based, Staphylococcus aureus; conditions: S. aureus (MRSA) 1199B (R); shown in µM
In short: as §1

Row | Compound | Modal MIC50 ([1]; NCPF 3209, 20 h) [µM] | Modal MIC90 ([1]; NCPF 3209, 20 h) [µM] | Modal MIC50 ([2]; NCPF 3281, 20 h) [µM] | Modal MIC90 ([2]; NCPF 3281, 20 h) [µM] | Modal MIC50 ([3]; NCPF 3876, 20 h) [µM] | Modal MIC90 ([3]; NCPF 3876, 20 h) [µM] | Modal MIC50 ([4]; NCPF 8018, 20 h) [µM] | Modal MIC90 ([4]; NCPF 8018, 20 h) [µM] | Modal MIC50 ([5]; NCPF 8760, 20 h) [µM] | Modal MIC90 ([5]; NCPF 8760, 20 h) [µM] | ElutionTime (RP-HPLC retention time of major fraction) [6] [min] | antimicrobial activity in the screens [7] | other results
1 | CC(C)[C@H](NC(=O)CNC(=O)[C@H](CCCNC(=N)N)NC(=O)[C@H](CCCNC(=N)N)NC(=O)[C@H](CS)NC(=O)[C@@H](NC(=O)[C@H](CS)NC(=O)[C@@H](N)CCCNC(=N)N)C(C)C)C(=O)N[C@@H](CS)C(=O)O [ThetaDefB] (H-RCVCRRGVC-OH; N-terminus and C-terminus assumed) | > 116.4 | > 116.4 | > 116.4 | > 116.4 | > 116.4 | > 116.4 | > 116.4 | > 116.4 | > 116.4 | > 116.4 | 20 | no activity | 
2 | CC(C)[C@H](NC(=O)CNC(=O)[C@H](CCCNC(=N)N)NC(=O)[C@@H](N)CCCNC(=N)N)C(=O)N[C@@H](CS)C(=O)N[C@@H](CCCNC(=N)N)C(=O)N[C@@H](CS)C(=O)N[C@H](C(=O)N[C@@H](CS)C(=O)N[C@@H](CCCNC(=N)N)C(=O)N[C@@H](CCCNC(=N)N)C(N)=O)C(C)C [BTD11a] (H-RRGVCRCVCRR-NH2; N-terminus assumed) | 2.9 | 11.8 | 23.5 | 47 | 23.5 | 23.5 | 11.8 | 23.5 | 0.7 | 1.5 | 16 |  | Modal MIC50 ([8]; C. auris TDG 1912, 50% growth inhibition, RPMI 1640 + 2% glucose, 37 °C, 20 h, OD600): 64 µg/mL; Modal MIC50 ([8]; TDG 1912, 20 h): 47 µM; Modal MIC90 ([8]; TDG 1912, 20 h): > 94 µM; Modal MIC50 ([1]; C. parapsilosis NCPF 3209, 50% growth inhibition, RPMI 1640 + 2% glucose, 37 °C, 20 h): 4 µg/mL; Modal MIC90 ([1]; C. parapsilosis NCPF 3209, 90% growth inhibition, RPMI 1640 + 2% glucose, 37 °C, 20 h): 16 µg/mL; Modal MIC50 ([2]; C. albicans NCPF 3281, 50% growth inhibition, RPMI 1640 + 2% glucose, 37 °C, 20 h): 32 µg/mL; Modal MIC90 ([2]; C. albicans NCPF 3281, 90% growth inhibition, RPMI 1640 + 2% glucose, 37 °C, 20 h): 64 µg/mL; Modal MIC50 ([3]; C. krusei NCPF 3876, 50% growth inhibition, RPMI 1640 + 2% glucose, 37 °C, 20 h): 32 µg/mL; Modal MIC90 ([3]; C. krusei NCPF 3876, 90% growth inhibition, RPMI 1640 + 2% glucose, 37 °C, 20 h): 32 µg/mL; Modal MIC50 ([4]; C. glabrata NCPF 8018, 50% growth inhibition, RPMI 1640 + 2% glucose, 37 °C, 20 h): 16 µg/mL; Modal MIC90 ([4]; C. glabrata NCPF 8018, 90% growth inhibition, RPMI 1640 + 2% glucose, 37 °C, 20 h): 32 µg/mL; Modal MIC50 ([5]; C. tropicalis NCPF 8760, 50% growth inhibition, RPMI 1640 + 2% glucose, 37 °C, 20 h): 1 µg/mL; Modal MIC90 ([5]; C. tropicalis NCPF 8760, 90% growth inhibition, RPMI 1640 + 2% glucose, 37 °C, 20 h): 2 µg/mL; Modal MIC [9]: > 94 µM
3 | CC(C)[C@H](NC(=O)[C@H](CS)NC(=O)[C@@H](N)CCCNC(=N)N)C(=O)N[C@@H](CS)C(=O)N[C@H](C(=O)N[C@@H](CCCNC(=N)N)C(=O)NCC(=O)N[C@@H](Cc1ccccc1)C(=O)N[C@@H](CS)C(=O)O)[C@@H](C)O [ThetaDefA] (H-RCVCTRGFC-OH; N-terminus and C-terminus assumed) | > 122.6 | > 122.6 | > 122.6 | > 122.6 | > 122.6 | > 122.6 | > 122.6 | > 122.6 | > 122.6 | > 122.6 | 22 | no activity | 
